The text below walks through data of patent US7314858B2, “Retrocyclins: antiviral and antimicrobial peptides” (priority 2001, dated 2008).

Where “and” joins values, the source holds several entries; their conditions need not be identical. Equal entries are not always repeated. Where a SMILES comes first, the peptide text is derived from it. Bridges are numbered along the chain shown (N, C = ends). [ ]: non-standard residue; d: D form.

The subject of one series is HIV-1 strain IIIB. Briefly: HIV-1 IIIB infection of CD4+ PBMC, p24 antigen ELISA. The series is classed as cell-based. The conditions noted are these: CD4+ PBMC, IIIB (X4), peptide 10-20 μg/ml. On the procedure: FIG. 5A-C. Anti-HIV-1 activity of retrocyclin. Two strains of HIV-1 and two types of human target cells were used. The IIIB strain is T-cell tropic (X4) and utilizes the CXCR4 co-receptor for entry; the JR-CSF strain is M-tropic (R5) and uses CCR5 for entry. PBMC signifies CD4^+-selected peripheral blood mononuclear cells. […] (A) Two concentrations of retrocyclin (2 μg/ml, 20 μg/ml), 20 μg/ml of the Rhesus circular defensin “RTD-1”, and 20 μg/ml of a horseshoe crab-derived peptide “T140”, reported to only prevent X4 infections, were tested in antiviral assays of against strain IIIB in H9 cells (n=2-6 per peptide; error bars indicate SEM). (B) To confirm our results with primary human cells, similar assays were performed utilizing IIIB virus and CD4^+ PBMC or (C) JR-CSF virus and CD4^+ PBMC. […] Average of duplicate experiments are reported for studies with PBMCs. Assay sensitivity=10 pg/ml.
Either HIV-1-permissive H9 cells were used as targets, or primary CD4^+ lymphocytes from HIV-1-seronegative donors generated from freshly purified peripheral blood mononuclear cells (PBMC) stimulated with a CD3-CD8 bispecific monoclonal antibody. […] These cells were maintained in RPMI containing 10% FCS supplemented with 2 mM glutamine, 100 U of penicillin/ml, 10 μg of streptomycin/ml, and 50 U of interleukin 2/ml (R10-50 media).
Examining the effect of adding retrocyclin at various times pre- and post-HIV-1 infection. […] Primary CD4^+ PBMC were incubated with HIV-IIIB (FIG. 6) or HIV-JR-CSF for 3 hours in the presence or absence of 20 μg/ml retrocyclin. The cells were subsequently washed in media, and incubated an additional 9 days. Retrocyclin (20 μg/ml) was added back to some of the cultures at time points specified in FIG. 6 and infection was monitored by p24 ELISA as previously described. […]
As for “I11Y-Retrocyclin (cyclo(GICRCICGRGYCRCICGR); disulfide (positions not given here); ring closure inferred; not fully specified (bridges)) [RC-105]”, the “inhibition of HIV-1 replication (p24)” value is “either inactive or only modestly active”.

A further series concerns human red blood cells. Kind of series: Hemagglutination of washed red blood cells in PBS.
Conditions: not given
On the procedure:
Hemagglutination was tested by adding the stated concentration of peptide to a well comprising red blood cells (shown in FIG. 22). When the RBC are agglutinated, they clump together and settle rapidly and form a diffuse circle covering much of the bottom of the well. In the absence of agglutination, they settle more slowly and form a compact red button in the center of the well.
Sequences of retrocyclin-related peptides that were synthesized and either tested for activity against HIV-1 (see FIGS. 21A and 21B) and/or for their ability to cause human red blood cells to hemagglutinate or both. NT signifies not tested. Linear sequences appear in the table, but all peptides were cyclic and contained three intramolecular disulfide bonds. Hemagglutination of washed human red blood cells was tested in PBS, at peptide concentrations of 50, 25, 12.5 6.25 and 3.12 μg/ml. The lowest concentrations that caused hemagglutination are shown. Peptide concentrations were determined by amino acid analysis or by AUC (area under the curve) RP-HPLC analysis with reference to amino-acid analyzed standards.
For the compound “R→K Retrocyclin-1 (cyclo(GICKCICGKGICKCICGR); disulfide (positions not given here); ring closure inferred; not fully specified (bridges)) [RC119]”, the “Hemagglutination seen at a concentration of (lowest concentration that caused hemagglutination)” value (“Hemagglutination seen at a concentration” for short) worked out at 50 µg/mL.

The series is the same for the next values; noted with them: washed human red blood cells in PBS.
`CC[C@H](C)[C@@H]1NC(=O)CNC(=O)[C@H](CCCNC(=N)N)NC(=O)CNC(=O)[C@@H]2CSSC[C@H](NC1=O)C(=O)N[C@@H](CCCNC(=N)N)C(=O)N[C@H]1CSSC[C@H](NC(=O)[C@H](CCCNC(=N)N)NC(=O)[C@@H]3CSSC[C@H](NC(=O)[C@H]([C@@H](C)CC)NC1=O)C(=O)NCC(=O)N[C@@H](CCCCN)C(=O)N[C@@H](CCCNC(=N)N)C(=O)N[C@@H]([C@@H](C)CC)C(=O)N3)C(=O)N[C@@H]([C@@H](C)CC)C(=O)N2` [RC123A, Retrocyclin 2A] (cyclo(CGKRICRCICGRGICRCI); disulfide 1-6, 8-17, 10-15): the “Hemagglutination seen at a concentration” value is 50 µg/mL and the “hemagglutination compared with retrocyclin” value is “less hemagglutination than retrocyclin-1 or retrocyclin-2”.
With `CC[C@H](C)[C@@H]1NC(=O)CNC(=O)[C@H](CCCNC(=N)N)NC(=O)CNC(=O)[C@@H]2CSSC[C@H](NC1=O)C(=O)N[C@@H](CCCNC(=N)N)C(=O)N[C@H]1CSSC[C@H](NC(=O)[C@H](CCCNC(=N)N)NC(=O)[C@@H]3CSSC[C@H](NC(=O)[C@H]([C@@H](C)CC)NC1=O)C(=O)NCC(=O)N[C@@H](CCCCN)C(=O)N[C@@H](CCCCN)C(=O)N[C@@H]([C@@H](C)CC)C(=O)N3)C(=O)N[C@@H]([C@@H](C)CC)C(=O)N2` [RC123B, Retrocyclin 2B] (cyclo(CGKKICRCICGRGICRCI); disulfide 1-6, 8-17, 10-15), the “Hemagglutination seen at a concentration” value came out at 6.25 µg/mL.
Consider `CC[C@H](C)[C@@H]1NC(=O)CNC(=O)[C@H](CCCNC(=N)N)NC(=O)CNC(=O)[C@@H]2CSSC[C@H](NC1=O)C(=O)N[C@@H](CCCNC(=N)N)C(=O)N[C@H]1CSSC[C@H](NC(=O)[C@H](CCCNC(=N)N)NC(=O)[C@@H]3CSSC[C@H](NC(=O)[C@H]([C@@H](C)CC)NC1=O)C(=O)NCC(=O)N[C@@H](CCCNC(=N)N)C(=O)N[C@@H](CCCCN)C(=O)N[C@@H]([C@@H](C)CC)C(=O)N3)C(=O)N[C@@H]([C@@H](C)CC)C(=O)N2` [RC123C, Retrocyclin 2C] (cyclo(CGRGICRCICGRKICRCI); disulfide 1-6, 8-17, 10-15), for which the “Hemagglutination seen at a concentration” value turned out to be 50 µg/mL and the “hemagglutination compared with retrocyclin” value is recorded as “less hemagglutination than retrocyclin-1 or retrocyclin-2”.
As to `CC[C@H](C)[C@@H]1NC(=O)CNC(=O)[C@H](CCCNC(=N)N)NC(=O)CNC(=O)[C@@H]2CSSC[C@H](NC1=O)C(=O)N[C@@H](CCCNC(=N)N)C(=O)N[C@H]1CSSC[C@H](NC(=O)[C@H](CCCCN)NC(=O)[C@@H]3CSSC[C@H](NC(=O)[C@H]([C@@H](C)CC)NC1=O)C(=O)NCC(=O)N[C@@H](CCCNC(=N)N)C(=O)N[C@@H](CCCNC(=N)N)C(=O)N[C@@H]([C@@H](C)CC)C(=O)N3)C(=O)N[C@@H]([C@@H](C)CC)C(=O)N2` [RC123D, Retrocyclin 2D] (cyclo(CGRGICRCICGRRICKCI); disulfide 1-6, 8-17, 10-15), the “Hemagglutination seen at a concentration” value amounted to 50 µg/mL.
As for `CC[C@H](C)[C@@H]1NC(=O)CNC(=O)[C@H](CCCNC(=N)N)NC(=O)CNC(=O)[C@@H]2CSSC[C@H](NC1=O)C(=O)N[C@@H](CCCCN)C(=O)N[C@H]1CSSC[C@H](NC(=O)[C@H](CCCNC(=N)N)NC(=O)[C@@H]3CSSC[C@H](NC(=O)[C@H]([C@@H](C)CC)NC1=O)C(=O)NCC(=O)N[C@@H](CCCNC(=N)N)C(=O)N[C@@H](CCCNC(=N)N)C(=O)N[C@@H]([C@@H](C)CC)C(=O)N3)C(=O)N[C@@H]([C@@H](C)CC)C(=O)N2` [RC123E, Retrocyclin 2E] (cyclo(CGRGICKCICGRRICRCI); disulfide 1-6, 8-17, 10-15), the “Hemagglutination seen at a concentration” value came to 25 µg/mL.
Consider `CC[C@@H](C)[C@H]1NC(=O)CNC(=O)[C@@H](CCCNC(=N)N)NC(=O)CNC(=O)[C@H]2CSSC[C@@H](NC1=O)C(=O)N[C@H](CCCNC(=N)N)C(=O)N[C@@H]1CSSC[C@@H](NC(=O)[C@@H](CCCNC(=N)N)NC(=O)[C@H]3CSSC[C@@H](NC(=O)[C@@H]([C@H](C)CC)NC1=O)C(=O)NCC(=O)N[C@H](CCCNC(=N)N)C(=O)NCC(=O)N[C@H]([C@H](C)CC)C(=O)N3)C(=O)N[C@H]([C@H](C)CC)C(=O)N2` [RC-112, enantio-retrocyclin] (cyclo(G[dI][dC][dR][dC][dI][dC]G[dR]G[dI][dC][dR][dC][dI][dC]G[dR]); disulfide 3-16, 5-14, 7-12), for which the “Hemagglutination seen at a concentration” value is 50 µg/mL and the “hemagglutination compared with retrocyclin” value was “less hemagglutination than retrocyclin-1 or retrocyclin-2”.
For `CC[C@@H](C)[C@H]1NC(=O)CNC(=O)[C@@H](CCCCN)NC(=O)CNC(=O)[C@H]2CSSC[C@@H](NC1=O)C(=O)N[C@H](CCCNC(=N)N)C(=O)N[C@@H]1CSSC[C@@H](NC(=O)[C@@H](CCCNC(=N)N)NC(=O)[C@H]3CSSC[C@@H](NC(=O)[C@@H]([C@H](C)CC)NC1=O)C(=O)NCC(=O)N[C@H](CCCNC(=N)N)C(=O)NCC(=O)N[C@H]([C@H](C)CC)C(=O)N3)C(=O)N[C@H]([C@H](C)CC)C(=O)N2` [RC-113, enantio-RC-101], in that order: 50 µg/mL and “less hemagglutination than retrocyclin-1 or retrocyclin-2”.
For `CC[C@H](C)[C@@H]1NC(=O)CNC(=O)[C@H](CCCCN)NC(=O)CNC(=O)[C@@H]2CSSC[C@H](NC1=O)C(=O)N[C@@H](CCCNC(=N)N)C(=O)N[C@H]1CSSC[C@H](NC(=O)[C@H](CCCNC(=N)N)NC(=O)[C@@H]3CSSC[C@H](NC(=O)[C@H](Cc4ccc(O)cc4)NC1=O)C(=O)NCC(=O)N[C@@H](CCCNC(=N)N)C(=O)NCC(=O)N[C@@H]([C@@H](C)CC)C(=O)N3)C(=O)N[C@@H]([C@@H](C)CC)C(=O)N2` [RC-114, RC-101/103 hybrid] (cyclo(CGKGICRCYCGRGICRCI); disulfide 1-6, 8-17, 10-15), the “Hemagglutination seen at a concentration” value is 200 µg/mL and > 150 µg/mL; the “hemagglutination compared with retrocyclin” value is “much less hemagglutination than retrocyclin”.
